± gives the standard deviation.
What was measured:
[1] = chemical recovery from spiked human plasma; higher = better extraction; settings: pooled human plasma
[2] = chemical recovery into PDMS from spiked human plasma; higher = better extraction; settings: pooled human plasma, extraction method: PES with PDMS
[3] = chemical recovery by SPE of plasma after PDMS sampling; higher = better extraction; settings: pooled human plasma, extraction method: HLB SPE of plasma after PES
[4] = extraction method: SPE only (HLB 96-well), PES comparison experiment
[5] = extraction method: solvent precipitation (ACN + hexane)
[6] = extraction method: PES+SPE (3 d PDMS equilibration then HLB SPE)
[7] = extraction method: SPE only (HLB 96-well)
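Wherever chemical recovery by SPE of plasma after PDMS sampling is given: over 400 spiked chemicals quantified by LC-HRMS or GC-HRMS via internal standard calibration, recovery relative to spike mix added to unspiked plasma extract to correct matrix effects.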

| chemical recovery [1, 4] | chemical recovery into PDMS ([2]; equilibration time (d): 1) | chemical recovery into PDMS ([2]; equilibration time (d): 3) | chemical recovery into PDMS ([2]; equilibration time (d): 6) | chemical recovery by SPE of plasma ([3]; equilibration time (d): 1) | chemical recovery by SPE of plasma ([3]; equilibration time (d): 3) | chemical recovery by SPE of plasma ([3]; equilibration time (d): 6) | chemical recovery [1, 5] | chemical recovery [1, 6] | chemical recovery [1, 7] | SMILES |
| --- | --- | --- | --- | --- | --- | --- | --- | --- | --- | --- |
| 43.4 ± 6.2% | 39.6 ± 3.2% | 42.2 ± 4.2% | 43.2 ± 2.2% | 3.65 ± 3.2% | 2.44 ± 2.1% | 0.703 ± 1.2% |  |  |  | CCCN(CCOc1c(Cl)cc(Cl)cc1Cl)C(=O)NC=O |
| 24.5 ± 5.8% | 15.9 ± 6.2% | 9.35 ± 5.2% | 13.5 ± 8.6% | 1.42 ± 1.2% |  |  |  |  |  | C#C[C@]1(OC(C)=O)CC[C@H]2[C@@H]3CCC4=CC(=NO)CC[C@@H]4[C@H]3CC[C@@]21CC (mixture of isomers) [Norgestimate] |
| 17.3 ± 3% | 70.3 ± 20% | 70.6 ± 5.2% | 78.1 ± 11% |  | 2.49 ± 2.2% |  |  | 45.1 ± 7.6% | 12.2 ± 3% | c1ccc(-c2cccc3ccccc23)cc1 [1-Phenylnaphthalene] |
| 53.9 ± 5.8% | 4.24 ± 0.36% | 6.44 ± 1% | 7.25 ± 1.5% | 47.4 ± 3.6% | 46.6 ± 3.2% | 39.9 ± 2.1% | 62.5 ± 4.5% | 51.7 ± 3.9% | 48.2 ± 2.7% | c1ccc2[nH]nnc2c1 [1H-Benzotriazole] |
| 23.9 ± 4.7% | 36.6 ± 1.5% | 40.9 ± 4% | 43.5 ± 3.3% | 0.712 ± 0.79% | 0.276 ± 0.48% |  |  |  |  | O=Cc1ccccc1Nc1ccccc1Cl [2-(2-(Chlorophenyl)amino)benzaldehyde] |
|  | 6.56 ± 0.99% | 9.84 ± 3% | 5.91 ± 1.3% | 0.45 ± 0.78% | 1.14 ± 0.62% | 0.431 ± 0.75% |  |  |  | Nc1ccccc1Br [2-Bromoaniline] |
| 51.6 ± 4.5% | 0.215 ± 0.2% | 0.668 ± 0.2% | 0.788 ± 0.13% | 57.7 ± 11% | 55.6 ± 6.7% | 51.7 ± 11% | 68.2 ± 1.6% | 48.1 ± 3.7% | 44.7 ± 3.9% | NC(=O)N1c2ccccc2C=Cc2cc(O)ccc21 [2-Hydroxycarbamazepine] |
| 0.912 ± 0.53% | 8.73 ± 6% |  | 5.9 ± 0.22% | 0.0827 ± 0.14% | 0.253 ± 0.11% | 0.0669 ± 0.12% |  |  | 0.149 ± 0.18% | Cc1nc2ccccc2s1 [2-Methylbenzothiazole] |
| 49.3 ± 6.2% | 0.856 ± 1.5% | 4.96 ± 0.6% | 5.93 ± 0.81% | 40.1 ± 4.3% | 40.9 ± 3% | 36.5 ± 1.1% | 71.8 ± 3.8% | 56.4 ± 2.7% | 43.9 ± 3.2% | NC(=O)Nc1ccc(Cl)c(Cl)c1 [3,4-Dichlorophenylurea] |

More lines, now with the values behind:

| SMILES | chemical recovery [1, 4] | chemical recovery into PDMS ([2]; equilibration time (d): 1) | chemical recovery into PDMS ([2]; equilibration time (d): 3) | chemical recovery into PDMS ([2]; equilibration time (d): 6) | chemical recovery by SPE of plasma ([3]; equilibration time (d): 1) | chemical recovery by SPE of plasma ([3]; equilibration time (d): 3) | chemical recovery by SPE of plasma ([3]; equilibration time (d): 6) | chemical recovery [1, 5] | chemical recovery [1, 6] | chemical recovery [1, 7] |
| --- | --- | --- | --- | --- | --- | --- | --- | --- | --- | --- |
| Fc1ccc([C@]2(Cn3cncn3)O[C@H]2c2ccccc2Cl)cc1 (racemic) [Epoxiconazole] | 47.4 ± 6.8% | 43.7 ± 1.7% | 48.1 ± 4.1% | 46.5 ± 5.9% | 0.968 ± 0.044% | 0.628 ± 0.21% | 0.285 ± 0.018% | 73.6 ± 3% |  |  |
| CC(=O)N1CCN(c2ccc(OC[C@H]3CO[C@](Cn4ccnc4)(c4ccc(Cl)cc4Cl)O3)cc2)CC1 (racemic) [Ketoconazole] | 39.6 ± 10% | 0.0493 ± 0.043% | 0.0293 ± 0.027% | 0.0825 ± 0.0051% | 17.2 ± 0.9% | 12.8 ± 1.7% | 10.5 ± 1.8% |  | 7.76 ± 0.64% | 42.6 ± 2.9% |
| CN1CCN(C)C1=O [1,3-Dimethyl-2-imidazolidinone] | 13.6 ± 8.1% | 3.18 ± 2.2% | 2.57 ± 3% | 3.27 ± 3.2% | 4.06 ± 4.7% | 4.29 ± 3.7% | 8.78 ± 4.2% |  |  | 7.04 ± 5.9% |
| Nc1cccc2ccccc12 [1-Naphthylamine] | 22 ± 3% |  | 0.33 ± 0.13% | 0.338 ± 0.048% | 11.2 ± 0.88% | 12.3 ± 2.6% | 6.22 ± 5.4% |  | 4.07 ± 2.1% | 16.7 ± 8.8% |
| c1ccc2sc(N3CCOCC3)nc2c1 [2(4-morpholinyl)benzothiazole] | 40.1 ± 5.6% | 27.1 ± 0.46% | 29.2 ± 2.2% | 30.7 ± 0.94% | 1.2 ± 0.1% | 1.41 ± 0.23% | 0.805 ± 0.046% | 67.9 ± 3.3% | 41.7 ± 6.4% | 39.6 ± 2.1% |
| CC1(C)CC(=O)CC(C)(C)N1 [2,2,6,6-Tetramethyl-4 piperidone] |  | 0.707 ± 0.49% | 1.17 ± 0.15% | 0.677 ± 0.17% | 2.44 ± 4% |  | 1.13 ± 0.92% |  |  |  |
| O=C(O)c1ccc(Cl)cc1Cl [2,4-Dichlorobenzoic acid] | 57 ± 6.3% | 0.268 ± 0.04% | 0.296 ± 0.12% | 0.344 ± 0.065% | 47.5 ± 9.1% | 46.9 ± 8.3% | 47 ± 2.5% | 67 ± 4.5% |  | 47.3 ± 5.1% |
| Nc1ccc2c(n1)[nH]c1ccccc12 [2-Amino-9H-pyrido[2,3-b]indole (AalphaC)] | 45.3 ± 7.1% | 3 ± 0.11% | 3.49 ± 1.2% | 5.65 ± 2.5% | 19.66 ± 0.18% | 14.4 ± 1.5% | 9.97 ± 0.52% | 70.8 ± 5.4% | 17 ± 2.6% | 28.5 ± 2.1% |
| Clc1ccc2ccccc2c1 [2-Chloronaphthalene] | 0.564 ± 0.39% | 10.2 ± 1.7% |  |  | 3.42 ± 3% |  |  |  |  | 0.106 ± 0.18% |
| O=c1[nH]c2ccccc2s1 [2-Hydroxybenzothiazole] | 58.8 ± 4.3% | 9.18 ± 0.11% | 11.1 ± 0.48% | 8.95 ± 1.5% | 36.2 ± 6% | 37.7 ± 2.4% | 30.3 ± 2.5% | 71.6 ± 5.8% | 63.5 ± 7% | 49.6 ± 2.7% |
| O=c1ccc2ccccc2[nH]1 [2-Hydroxyquinoline] | 52.9 ± 8.4% | 10.9 ± 0.65% | 15.6 ± 2% | 17.1 ± 2.4% | 36.8 ± 5.3% | 30.9 ± 3.2% | 24 ± 2.1% | 78.2 ± 3.6% | 57.1 ± 5.5% | 43 ± 3.2% |
| CCCCCCCCn1sccc1=O [2-Octyl-4-isothiazolin-3-one] | 21.6 ± 2.9% | 33.3 ± 1.9% | 35.5 ± 1.5% | 36.3 ± 1.2% | 1.24 ± 0.64% | 1.03 ± 0.27% | 0.459 ± 0.03% | 40.8 ± 4.6% |  | 29.4 ± 2.2% |
| Nc1ccc(-c2ccc(N)c(Cl)c2)cc1Cl [3,3'-Dichlorobenzidine] | 24.4 ± 3.6% | 3.87 ± 0.23% | 3.04 ± 0.4% | 3.28 ± 0.46% | 16.1 ± 5.5% | 17.3 ± 2% | 14.6 ± 2.8% | 72 ± 6.2% | 39.1 ± 7.4% | 54.8 ± 17% |
| Cc1cc(Cc2ccc(N)c(C)c2)ccc1N [4,4'-Methylene-bis(2-methyl aniline)] | 24.5 ± 4% | 0.0153 ± 0.026% | 0.00421 ± 0.0073% | 0.0106 ± 0.018% | 4.29 ± 0.41% | 4.74 ± 0.39% | 2.61 ± 0.21% | 65 ± 9.2% | 1.31 ± 0.94% | 30.3 ± 9.8% |
